Data reported in patent US20250353891A1 (MEDIMMUNE LIMITED, priority 2022, published 2025).
Starred links: 1 amine or outer side, 2 acyl side, 3 side chain; linkers in the order of their positions; H or OH if unused. Non-standard residues stand in square brackets, D forms with d. Residues, ends and D or L forms follow the SMILES beside them. Groups on a side chain read outwards from the residue. *: point of attachment. C20 diacid = O=C(O)CCCCCCCCCCCCCCCCCCC(=O)*; C18 diacid = O=C(O)CCCCCCCCCCCCCCCCC(=O)*; γGlu = O=C(O)[C@H](CCC(=O)[*:2])N[*:1]; αMeF = C[C@](N)(Cc1ccccc1)C(=O)O; AEEA = NCCOCCOCC(=O)O; Aib = CC(C)(N)C(=O)O

How the values were obtained:
[1] = molecular target: human GLP-1 receptor (hGLP-1R) (Homo sapiens, UniProt P43220); test: cAMP production (HTRF) in CHO cells expressing hGLP-1R; assay type: cell-based; parameters: expressed in transfected cells; conditions: for EC50: Table 6, peptides modified at position 17, cAMP in CHO hGLP-1R cells, geometric mean, read-out: hGLP-1R EC50; for % Relative Potency Ratio: Table 6, % GLP-1R activity relative to GLP-1 / % GlucR activity relative to glucagon
Procedure, shortened: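 Read-out: HTRF cAMP (anti-cAMP cryptate donor, cAMP-d2 acceptor in conjugate/lysis buffer), converted to % Delta F and fitted by 4-parameter logistic for EC50. Cell densities were 1×10^5 cells/mL (hGLP-1R) or 2×10^5 cells/mL (hGCGR). Stimulation lasted 30 min at room temperature.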

[2] = molecular target: human glucagon receptor (hGCGR) (Homo sapiens, UniProt P47871); test: cAMP production (HTRF) in CHO cells expressing hGCGR; assay type: cell-based; parameters: expressed in transfected cells; conditions: Table 6, peptides modified at position 17; cAMP in CHO hGCGR cells; geometric mean; read-out: hGluc-R EC50
Protocol: Cells were re-suspended in assay buffer at a batch-dependent optimized concentration (typically hGLP-1R cells at 1×10^5 cells/mL, hGCGR cells at 2×10^5 cells/mL).
Cells were added to the assay plate using a multidrop dispenser and incubated at room temperature for 30 minutes before measuring the cAMP level using a cAMP dynamic 2 homogeneous time resolved Fluorescence (HTRF) kit (Cisbio Bioassays #62AM4PEJ) following the two-step protocol as per manufacturer's recommendations. In brief, anti-cAMP cryptate (donor fluorophore) and cAMP-d2 (acceptor fluorophore) were made up separately by diluting each 1 in 20 in conjugate and lysis buffer provided in the kit. Anti-CAMP cryptate was added to all wells of the assay plate, followed by cAMP-d2 added to all wells except non-specific binding (NSB) wells (to which conjugate and lysis buffer was added).
Data was transformed to % Delta F as described in the manufacturer's guidelines and analyzed by 4-parameter logistic fit to determine EC50 values.

human glucagon receptor (hGCGR), sequence (P47871 26-477): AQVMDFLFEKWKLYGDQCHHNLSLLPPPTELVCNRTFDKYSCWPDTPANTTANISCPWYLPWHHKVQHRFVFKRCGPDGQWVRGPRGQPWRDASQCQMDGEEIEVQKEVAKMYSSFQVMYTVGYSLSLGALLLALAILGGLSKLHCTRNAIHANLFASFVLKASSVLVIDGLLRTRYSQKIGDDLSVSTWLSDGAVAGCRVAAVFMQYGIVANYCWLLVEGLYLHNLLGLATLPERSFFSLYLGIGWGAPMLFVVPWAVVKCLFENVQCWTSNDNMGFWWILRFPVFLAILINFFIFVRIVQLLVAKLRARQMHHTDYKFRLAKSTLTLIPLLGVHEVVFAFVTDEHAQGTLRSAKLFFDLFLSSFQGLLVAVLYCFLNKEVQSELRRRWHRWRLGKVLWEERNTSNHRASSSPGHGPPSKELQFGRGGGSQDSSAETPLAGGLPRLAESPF
human GLP-1 receptor (hGLP-1R), sequence (P43220 24-463): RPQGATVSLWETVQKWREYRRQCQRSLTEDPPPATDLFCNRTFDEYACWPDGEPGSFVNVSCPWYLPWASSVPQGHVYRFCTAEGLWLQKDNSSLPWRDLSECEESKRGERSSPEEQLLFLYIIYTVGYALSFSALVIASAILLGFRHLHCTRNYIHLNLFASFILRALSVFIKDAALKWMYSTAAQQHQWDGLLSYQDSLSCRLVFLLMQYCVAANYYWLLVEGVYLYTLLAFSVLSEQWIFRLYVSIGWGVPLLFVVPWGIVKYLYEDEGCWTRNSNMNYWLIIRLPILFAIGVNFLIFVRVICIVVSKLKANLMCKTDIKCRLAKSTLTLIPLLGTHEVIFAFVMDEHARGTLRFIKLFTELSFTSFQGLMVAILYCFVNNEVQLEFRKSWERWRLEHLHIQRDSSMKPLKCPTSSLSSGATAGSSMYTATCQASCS

| SMILES | EC50 [1] [nM] | % Relative Potency Ratio [1] | EC50 [2] [nM] |
| --- | --- | --- | --- |
| CC[C@H](C)[C@H](NC(=O)[C@H](Cc1c[nH]c2ccccc12)NC(=O)[C@H](CCC(N)=O)NC(=O)[C@@H](NC(=O)[C@H](Cc1ccccc1)NC(=O)[C@H](CC(=O)O)NC(=O)[C@H](CCC(N)=O)NC(=O)[C@H](C)NC(=O)[C@H](C)NC(=O)[C@H](CCCCNC(=O)COCCOCCNC(=O)COCCOCCNC(=O)CC[C@H](NC(=O)CCCCCCCCCCCCCCCCC(=O)O)C(=O)O)NC(=O)[C@H](CO)NC(=O)[C@H](CC(=O)O)NC(=O)[C@H](CC(C)C)NC(=O)[C@](C)(Cc1ccccc1)NC(=O)[C@H](CCCCN)NC(=O)[C@H](CO)NC(=O)[C@@H](NC(=O)[C@H](CC(=O)O)NC(=O)[C@H](CO)NC(=O)[C@@H](NC(=O)[C@](C)(Cc1ccccc1)NC(=O)[C@H](CO)NC(=O)CNC(=O)[C@H](Cc1c[nH]cn1)NC(=O)C(C)(C)NC(=O)[C@@H](N)Cc1c[nH]cn1)[C@@H](C)O)C(C)C)C(C)C)C(=O)N[C@@H](C)C(=O)N[C@@H](CC(N)=O)C(=O)N[C@H](C(N)=O)[C@@H](C)O [Peptide 8] (H-H[Aib]HGS[αMeF]TSDVSK[αMeF]LDSK([AEEA-AEEA-γGlu-C18 diacid])AAQDFVQWIANT-NH2; N-terminus assumed) | 0.0878 | 1.2 | 0.0536 |
| CC[C@H](C)[C@H](NC(=O)[C@H](Cc1c[nH]c2ccccc12)NC(=O)[C@H](CCC(N)=O)NC(=O)[C@@H](NC(=O)[C@H](Cc1ccccc1)NC(=O)[C@H](CC(=O)O)NC(=O)[C@H](CCCNC(=N)N)NC(=O)[C@H](C)NC(=O)[C@H](C)NC(=O)[C@H](CCCCNC(=O)COCCOCCNC(=O)COCCOCCNC(=O)CC[C@H](NC(=O)CCCCCCCCCCCCCCCCC(=O)O)C(=O)O)NC(=O)[C@H](CO)NC(=O)[C@H](CC(=O)O)NC(=O)[C@H](CC(C)C)NC(=O)[C@](C)(Cc1ccccc1)NC(=O)[C@H](CCCCN)NC(=O)[C@H](CO)NC(=O)[C@@H](NC(=O)[C@H](CC(=O)O)NC(=O)[C@H](CO)NC(=O)[C@@H](NC(=O)[C@](C)(Cc1ccccc1)NC(=O)[C@H](CO)NC(=O)CNC(=O)[C@H](Cc1c[nH]cn1)NC(=O)C(C)(C)NC(=O)[C@@H](N)Cc1c[nH]cn1)[C@@H](C)O)C(C)C)C(C)C)C(=O)N[C@@H](C)C(=O)N[C@@H](CC(N)=O)C(=O)N[C@H](C(N)=O)[C@@H](C)O [Peptide 9] (H-H[Aib]HGS[αMeF]TSDVSK[αMeF]LDSK([AEEA-AEEA-γGlu-C18 diacid])AARDFVQWIANT-NH2; N-terminus assumed) | 0.242 | 2.3 | 0.279 |
| CC[C@H](C)[C@H](NC(=O)[C@H](Cc1c[nH]c2ccccc12)NC(=O)[C@H](CCC(=O)O)NC(=O)[C@@H](NC(=O)[C@H](Cc1ccccc1)NC(=O)[C@H](CC(=O)O)NC(=O)[C@H](CCCNC(=N)N)NC(=O)[C@H](C)NC(=O)[C@H](C)NC(=O)[C@H](CCCCNC(=O)COCCOCCNC(=O)COCCOCCNC(=O)CC[C@H](NC(=O)CCCCCCCCCCCCCCCCC(=O)O)C(=O)O)NC(=O)[C@H](CO)NC(=O)[C@H](CC(=O)O)NC(=O)[C@H](CC(C)C)NC(=O)[C@](C)(Cc1ccccc1)NC(=O)[C@H](CCCCN)NC(=O)[C@H](CO)NC(=O)[C@@H](NC(=O)[C@H](CC(=O)O)NC(=O)[C@H](CO)NC(=O)[C@@H](NC(=O)[C@](C)(Cc1ccccc1)NC(=O)[C@H](CO)NC(=O)CNC(=O)[C@H](Cc1c[nH]cn1)NC(=O)C(C)(C)NC(=O)[C@@H](N)Cc1c[nH]cn1)[C@@H](C)O)C(C)C)C(C)C)C(=O)N[C@@H](C)C(=O)N[C@@H](CC(N)=O)C(=O)N[C@H](C(N)=O)[C@@H](C)O [Peptide 10] (H-H[Aib]HGS[αMeF]TSDVSK[αMeF]LDSK([AEEA-AEEA-γGlu-C18 diacid])AARDFVEWIANT-NH2; N-terminus assumed) | 0.658 | 1.1 | 0.377 |
| CC[C@H](C)[C@H](NC(=O)C(C)(C)NC(=O)[C@H](CCC(N)=O)NC(=O)[C@@H](NC(=O)[C@H](Cc1ccccc1)NC(=O)[C@H](CC(=O)O)NC(=O)[C@H](CCC(N)=O)NC(=O)[C@H](C)NC(=O)[C@H](C)NC(=O)[C@H](CCCCNC(=O)COCCOCCNC(=O)COCCOCCNC(=O)CC[C@H](NC(=O)CCCCCCCCCCCCCCCCC(=O)O)C(=O)O)NC(=O)[C@H](CO)NC(=O)[C@H](CC(=O)O)NC(=O)[C@H](CC(C)C)NC(=O)[C@](C)(Cc1ccccc1)NC(=O)[C@H](CCCCN)NC(=O)[C@H](CO)NC(=O)[C@@H](NC(=O)[C@H](CC(=O)O)NC(=O)[C@H](CO)NC(=O)[C@@H](NC(=O)[C@](C)(Cc1ccccc1)NC(=O)[C@H](CO)NC(=O)CNC(=O)[C@H](Cc1c[nH]cn1)NC(=O)C(C)(C)NC(=O)[C@@H](N)Cc1c[nH]cn1)[C@@H](C)O)C(C)C)C(C)C)C(=O)N[C@@H](C)C(=O)N[C@@H](CC(N)=O)C(=O)N[C@H](C(N)=O)[C@@H](C)O [Peptide 11] (H-H[Aib]HGS[αMeF]TSDVSK[αMeF]LDSK([AEEA-AEEA-γGlu-C18 diacid])AAQDFVQ[Aib]IANT-NH2) | 0.157 | 1.5 | 0.118 |
| CC[C@H](C)[C@H](NC(=O)C(C)(C)NC(=O)[C@H](CCC(N)=O)NC(=O)[C@@H](NC(=O)[C@H](Cc1ccccc1)NC(=O)[C@H](CC(=O)O)NC(=O)[C@H](CCCNC(=N)N)NC(=O)[C@H](C)NC(=O)[C@H](C)NC(=O)[C@H](CCCCNC(=O)COCCOCCNC(=O)COCCOCCNC(=O)CC[C@H](NC(=O)CCCCCCCCCCCCCCCCC(=O)O)C(=O)O)NC(=O)[C@H](CO)NC(=O)[C@H](CC(=O)O)NC(=O)[C@H](CC(C)C)NC(=O)[C@](C)(Cc1ccccc1)NC(=O)[C@H](CCCCN)NC(=O)[C@H](CO)NC(=O)[C@@H](NC(=O)[C@H](CC(=O)O)NC(=O)[C@H](CO)NC(=O)[C@@H](NC(=O)[C@](C)(Cc1ccccc1)NC(=O)[C@H](CO)NC(=O)CNC(=O)[C@H](Cc1c[nH]cn1)NC(=O)C(C)(C)NC(=O)[C@@H](N)Cc1c[nH]cn1)[C@@H](C)O)C(C)C)C(C)C)C(=O)N[C@@H](C)C(=O)N[C@@H](CC(N)=O)C(=O)N[C@H](C(N)=O)[C@@H](C)O [Peptide 12] (H-H[Aib]HGS[αMeF]TSDVSK[αMeF]LDSK([AEEA-AEEA-γGlu-C18 diacid])AARDFVQ[Aib]IANT-NH2; N-terminus assumed) | 0.0145 | 6.5 | 0.0477 |
| CC[C@H](C)[C@H](NC(=O)C(C)(C)NC(=O)[C@H](CCC(N)=O)NC(=O)[C@@H](NC(=O)[C@](C)(Cc1ccccc1)NC(=O)[C@H](CC(=O)O)NC(=O)[C@H](CCCNC(=N)N)NC(=O)[C@H](C)NC(=O)[C@H](C)NC(=O)[C@H](CCCCNC(=O)COCCOCCNC(=O)COCCOCCNC(=O)CC[C@H](NC(=O)CCCCCCCCCCCCCCCCC(=O)O)C(=O)O)NC(=O)[C@H](CO)NC(=O)[C@H](CC(=O)O)NC(=O)[C@H](CC(C)C)NC(=O)[C@](C)(Cc1ccccc1)NC(=O)[C@H](CCCCN)NC(=O)[C@H](CO)NC(=O)[C@@H](NC(=O)[C@H](CC(=O)O)NC(=O)[C@H](CO)NC(=O)[C@@H](NC(=O)[C@](C)(Cc1ccccc1)NC(=O)[C@H](CO)NC(=O)CNC(=O)[C@H](Cc1c[nH]cn1)NC(=O)C(C)(C)NC(=O)[C@@H](N)Cc1c[nH]cn1)[C@@H](C)O)C(C)C)C(C)C)C(=O)N[C@@H](C)C(=O)N[C@@H](CC(N)=O)C(=O)N[C@H](C(N)=O)[C@@H](C)O [Peptide 13] (H-H[Aib]HGS[αMeF]TSDVSK[αMeF]LDSK([AEEA-AEEA-γGlu-C18 diacid])AARD[αMeF]VQ[Aib]IANT-NH2; N-terminus assumed) | 0.0159 | 5.5 | 0.044 |
| CC[C@H](C)[C@H](NC(=O)C(C)(C)NC(=O)[C@H](CCC(N)=O)NC(=O)[C@@H](NC(=O)[C@](C)(Cc1ccccc1)NC(=O)[C@H](CC(=O)O)NC(=O)[C@H](CCCNC(=N)N)NC(=O)[C@H](C)NC(=O)[C@H](C)NC(=O)[C@H](CCCCNC(=O)COCCOCCNC(=O)COCCOCCNC(=O)CC[C@H](NC(=O)CC[C@H](NC(=O)CCCCCCCCCCCCCCCCCCC(=O)O)C(=O)O)C(=O)O)NC(=O)[C@H](CO)NC(=O)[C@H](CC(=O)O)NC(=O)[C@H](CC(C)C)NC(=O)[C@](C)(Cc1ccccc1)NC(=O)[C@H](CCCCN)NC(=O)[C@H](CO)NC(=O)[C@@H](NC(=O)[C@H](CC(=O)O)NC(=O)[C@H](CO)NC(=O)[C@@H](NC(=O)[C@](C)(Cc1ccccc1)NC(=O)[C@H](CO)NC(=O)CNC(=O)[C@H](Cc1c[nH]cn1)NC(=O)C(C)(C)NC(=O)[C@@H](N)Cc1c[nH]cn1)[C@@H](C)O)C(C)C)C(C)C)C(=O)N[C@@H](C)C(=O)N[C@@H](CC(N)=O)C(=O)N[C@H](C(N)=O)[C@@H](C)O [Peptide 14] (H-H[Aib]HGS[αMeF]TSDVSK[αMeF]LDSK([AEEA-AEEA-γGlu-γGlu-C20 diacid])AARD[αMeF]VQ[Aib]IANT-NH2; N-terminus assumed) | 0.0938 | 9.7 | 0.462 |
